Measurements as given in US10457707B2, “Substituted urea depsipeptide analogs as activators of the CLPP endopeptidase” (priority 2015, dated 2019).
≈ marks a conversion by molar mass, not a printed value. Read-outs that look alike come from different tables or passages of the source. *1 amine or outer side, *2 acyl side, *3 side chain or, on linkers, in order; H or OH if unused. Where a SMILES comes first, the peptide text is derived from it. Bridges are numbered along the chain shown (N, C = ends). [ ]: non-standard residue; d: D form. The star is where a group is joined. ξ: configuration not given here. Phe(3,5-F2) = N[C@@H](Cc1cc(F)cc(F)c1)C(=O)O; NH(1-Me-indolin-5-yl) = CN1CCc2cc(N*)ccc21; NH(4-OCF3-phenyl) = FC(F)(F)Oc1ccc(N*)cc1; Morpholine(3S-CO) = O=C(O)[C@@H]1COCCN1; NH(4-Cl-2-F-phenyl) = Fc1cc(Cl)ccc1N*; Pro(4R-Me) = C[C@H]1CN[C@H](C(=O)O)C1; Hyp = O=C(O)[C@@H]1C[C@@H](O)CN1; Heptenoyl(2E) = CCCC/C=C/C(=O)*; NH(4-Me-phenyl) = Cc1ccc(N*)cc1; ξNMeThr = CNC(C(=O)O)[C@@H](C)O; aThr = C[C@H](O)[C@H](N)C(=O)O; Pip = O=C(O)[C@@H]1CCCCN1; NMeA = CN[C@@H](C)C(=O)O; X8 = c1cc2c(cc1N*)CCO2; CO = O=C([*:1])[*:2]; ξP = O=C(O)C1CCCN1

Legend:
Sa-ClpP = target: T1, Sa-ClpP (Staphylococcus aureus, UniProt Q2G036); assay: ADEP displacement fluorescence polarization assay (FP probe ADEP 2591); type: binding
T1 construct: made in house; host or cells: E. coli BL21(DE3)
T1 sequence (Q2G036 1-195): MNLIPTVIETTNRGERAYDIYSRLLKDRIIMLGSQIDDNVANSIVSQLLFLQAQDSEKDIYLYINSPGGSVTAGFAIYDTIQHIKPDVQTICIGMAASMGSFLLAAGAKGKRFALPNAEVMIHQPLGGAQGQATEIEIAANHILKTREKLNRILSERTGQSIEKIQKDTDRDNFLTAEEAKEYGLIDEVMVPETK
Method in brief: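 Probe displacement was measured in mP after compounds sat 120 min at room temperature with pre-equilibrated (1 h) Sa-ClpP (15 μM) and ADEP 2591 FP probe (50 nM) in pH 8.0 Tris-HCl with 2% DMSO. Data were scaled between DMSO and 200 μM ADEP 2378 and fit by variable-slope log-inhibitor regression.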

[1] = tested on: Enterococcus faecalis, ATCC 33186; assay: Minimal inhibitory concentration assay (microbroth dilution); type: cell-based
Method in brief: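 MIC is the lowest concentration stopping visible growth after overnight aerobic culture at 37 °C, per CLSI microbroth dilution (about 10^5 cfu/mL; two-fold series, top final 200 μM). ClpP-inactivated S. aureus USA 300 tested alongside parent strain to probe ClpP-mediated killing.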

[2] = Enterococcus faecalis, ATCC33186, read-out: Minimal Inhibitory Concentrations E. faecalis ATCC 33186
[3] = Enterococcus faecalis, ATCC33186; read-out: Minimal Inhibitory Concentrations E. faecalis ATCC 33186

Compound | IC50 (Sa-ClpP) | MIC [1, 2] | MIC [1, 3]
Cc1ccc(NC(=O)N[C@@H](Cc2cc(F)cc(F)c2)C(=O)N[C@H]2COC(=O)[C@@H]3C[C@@H](C)CN3C(=O)[C@H](C)NC(=O)[C@@H]3COCCN3C(=O)[C@@H]3C[C@@H](O)CN3C2=O)cc1 [Compound 317, (S)-3-(3,5-difluorophenyl)-N-((6aS,8R,12S,15aS,17R,21S,23aS)-8-hydroxy-17,21-dimethyl-6,11,15,20,23-pentaoxooctadecahydro-6H,11H,15H-[1,4]oxazino[3,4-i]dipyrrolo[2,1-c:2′,1′-l][1]oxa[4,7,10,13]tetraazacyclohexadecin-12-yl)-2-(3-(p-tolyl)ureido)propanamide] ({NH(4-Me-phenyl)-CO}-[Phe(3,5-F2)]S[Hyp][Morpholine(3S-CO)]A[Pro(4R-Me)]; ester 2-C) | 7.25 ± 0.5 µM | 0.313 µM (≈ 0.254 µg/mL) | 
C[C@@H]1C[C@H]2C(=O)O[C@@H](C)[C@H](NC(=O)[C@H](Cc3cc(F)cc(F)c3)NC(=O)Nc3ccc4c(c3)CCN4C)C(=O)N3C[C@H](O)C[C@H]3C(=O)N3CCOC[C@H]3C(=O)N[C@@H](C)C(=O)N2C1 [Compound 315, (S)-3-(3,5-difluorophenyl)-N-((6aS,8R,12S,13S,15aS,17R,21S,23aS)-8-hydroxy-13,17,21-trimethyl-6,11,15,20,23-pentaoxooctadecahydro-6H,11H,15H-[1,4]oxazino[3,4-i]dipyrrolo[2,1-c:2′,1′-l][1]oxa[4,7,10,13]tetraazacyclohexadecin-12-yl)-2-(3-(1-methylindolin-5-yl)ureido)propanamide] ({NH(1-Me-indolin-5-yl)-CO}-[Phe(3,5-F2)][aThr][Hyp][Morpholine(3S-CO)]A[Pro(4R-Me)]; ester 2-C) | 13.5 ± 0.6 µM | 0.625 µM (≈ 0.542 µg/mL) | 
CCCC/C=C/C(=O)N[C@@H](Cc1cc(F)cc(F)c1)C(=O)N[C@@H]1C(=O)N2C[C@H](O)C[C@H]2C(=O)N2CCCC[C@H]2C(=O)N[C@@H](C)C(=O)N2C[C@H](C)C[C@H]2C(=O)O[C@H]1C [Compound 301, (E)-N—((S)-3-(3,5-difluorophenyl)-1-(((2R,6S,8aS,14aS,16R,20S,21S,23aS)-16-hydroxy-2,6,21-trimethyl-5,8,14,19,23-pentaoxooctadecahydro-1H,5H,14H,19H-pyrido[2,1-i]dipyrrolo[2,1-c:2′,1′-l][1]oxa[4,7,10,13]tetraazacyclohexadecin-20-yl)amino)-1-oxopropan-2-yl)hept-2-enamide] ({Heptenoyl(2E)}-[Phe(3,5-F2)][aThr][Hyp][Pip]A[Pro(4R-Me)]; ester 2-C) | 7.07 ± 0.3 µM | < 0.0098 µM | 
C[C@@H]1C[C@H]2C(=O)O[C@@H](C)[C@H](NC(=O)[C@H](Cc3cc(F)cc(F)c3)NC(=O)Nc3ccc4c(c3)CCO4)C(=O)N3CCC[C@H]3C(=O)N3CCCC[C@H]3C(=O)N[C@@H](C)C(=O)N2C1 [Compound 305, (S)-3-(3,5-difluorophenyl)-2-(3-(2,3-dihydrobenzofuran-5-yl)ureido)-N-((2R,6S,8aS,14aS,20S,21S,23aS)-2,6,21-trimethyl-5,8,14,19,23-pentaoxooctadecahydro-1H,5H,14H,19H-pyrido[2,1-i]dipyrrolo[2,1-c:2′,1′-l][1]oxa[4,7,10,13]tetraazacyclo-hexadecin-20-yl)propanamide] ({X8-CO}-[Phe(3,5-F2)][aThr]P[Pip]A[Pro(4R-Me)]; ester 2-C) | 7.65 ± 0.5 µM | 0.029 µM (≈ 0.0242 µg/mL) | 
C[C@@H]1NC(=O)[C@H](C)N(C)C(=O)[C@@H]2CCCN2C(=O)[C@@H](NC(=O)[C@H](Cc2ccccc2)NC(=O)Nc2ccc(OC(F)(F)F)cc2)COC(=O)C2CCCN2C1=O (stereo partly drawn) [Compound 213, (2S)-3-phenyl-2-(3-(4-(trifluoromethoxy)phenyl)ureido)-N-((6S,9S,11aS,17S)-6,9,10-trimethyl-5,8,11,16,20-pentaoxohexadecahydro-1H,5H,16H-dipyrrolo[2,1-c:2′,1′-l][1]oxa[4,7,10,13]tetraazacyclohexadecin-17-yl)propanamide] ({NH(4-OCF3-phenyl)-CO}-FSP[NMeA]A[ξP]; ester 2-C) | 5 ± 0.4 µM |  | 0.39 µM (≈ 0.307 µg/mL)
C[C@@H]1C[C@H]2C(=O)O[C@@H](C)[C@H](NC(=O)[C@H](Cc3cc(F)cc(F)c3)NC(=O)Nc3ccc(Cl)cc3F)C(=O)N3CCC[C@H]3C(=O)N3CCOC[C@H]3C(=O)N[C@@H](C)C(=O)N2C1 [Compound 314, (S)-2-(3-(4-chloro-2-fluorophenyl)ureido)-3-(3,5-difluorophenyl)-N-((6aS,12S,13S,15aS,17R,21S,23aS)-13,17,21-trimethyl-6,11,15,20,23-pentaoxooctadecahydro-6H,11H,15H-[1,4]oxazino[3,4-i]dipyrrolo[2,1-c:2′,1′-l][1]oxa[4,7,10,13]tetraazacyclo-hexadecin-12-yl)propanamide] ({NH(4-Cl-2-F-phenyl)-CO}-[Phe(3,5-F2)][aThr]P[Morpholine(3S-CO)]A[Pro(4R-Me)]; ester 2-C) | 7.2 ± 0.3 µM |  | 0.039 µM (≈ 0.0331 µg/mL)
CCCC/C=C/C(=O)N[C@@H](Cc1cc(F)cc(F)c1)C(=O)N[C@@H]1C(=O)N2C[C@H](O)C[C@H]2C(=O)N2CCOC[C@H]2C(=O)N[C@@H](C)C(=O)N2C[C@H](C)C[C@H]2C(=O)O[C@H]1C [Compound 309, (E)-N—((S)-3-(3,5-difluorophenyl)-1-(((6aS,8R,12S,13S,15aS,17R,21S,23aS)-8-hydroxy-13,17,21-trimethyl-6,11,15,20,23-pentaoxooctadecahydro-6H,11H,15H-[1,4]oxazino[3,4-i]dipyrrolo[2,1-c:2′,1′-l][1]oxa[4,7,10,13]tetraazacyclohexadecin-12-yl)amino)-1-oxopropan-2-yl)hept-2-enamide] ({Heptenoyl(2E)}-[Phe(3,5-F2)][aThr][Hyp][Morpholine(3S-CO)]A[Pro(4R-Me)]; ester 2-C) | 7.2 ± 0.4 µM |  | 0.039 µM (≈ 0.0313 µg/mL)
Cc1ccc(NC(=O)N[C@@H](Cc2cc(F)cc(F)c2)C(=O)N[C@H]2COC(=O)[C@@H]3C[C@@H](C)CN3C(=O)[C@H](C)NC(=O)[C@@H]3CCCCN3C(=O)[C@@H]3CCCN3C2=O)cc1C [Compound 207, (S)-3-(3,5-difluorophenyl)-N-((2R,6S,8aS,14aS,20S,23aS)-2,6-dimethyl-5,8,14,19,23-pentaoxooctadecahydro-1H,5H,14H,19H-pyrido[2,1-i]dipyrrolo[2,1-c:2′,1′-l][1]oxa[4,7,10,13]tetraazacyclohexadecin-20-yl)-2-(3-(3,4-dimethylphenyl)ureido)propanamide] | 5.2 ± 0.3 µM | < 0.2 µM | 
C[C@@H]1C[C@H]2C(=O)O[C@@H](C)[C@H](NC(=O)[C@H](Cc3cc(F)cc(F)c3)NC(=O)Nc3ccc(Cl)cc3F)C(=O)N3CCC[C@H]3C(=O)N3CCCC[C@H]3C(=O)N[C@@H](C)C(=O)N2C1 [Compound 307, (S)-2-(3-(4-chloro-2-fluorophenyl)ureido)-3-(3,5-difluorophenyl)-N-((2R,6S,8aS,14aS,20S,21S,23aS)-2,6,21-trimethyl-5,8,14,19,23-pentaoxooctadecahydro-1H,5H,14H,19H-pyrido[2,1-i]dipyrrolo[2,1-c:2′,1′-l][1]oxa[4,7,10,13]tetraazacyclo-hexadecin-20-yl)propanamide] ({NH(4-Cl-2-F-phenyl)-CO}-[Phe(3,5-F2)][aThr]P[Pip]A[Pro(4R-Me)]; ester 2-C) | 7.8 ± 0.4 µM |  | < 0.02 µM
Cc1ccc(NC(=O)N[C@@H](Cc2cc(F)cc(F)c2)C(=O)N[C@H]2COC(=O)[C@@H]3C[C@@H](C)CN3C(=O)[C@H](C)NC(=O)C([C@@H](C)O)N(C)C(=O)[C@@H]3CCCN3C2=O)cc1 (stereo partly drawn) [Compound 322, (S)-3-(3,5-difluorophenyl)-N-((2R,6S,9R,11aS,17S,20aS)-9-((R)-1-hydroxyethyl)-2,6,10-trimethyl-5,8,11,16,20-pentaoxohexadecahydro-1H,5H,16H-dipyrrolo[2,1-c:2′,1′-l][1]oxa[4,7,10,13]tetraazacyclohexadecin-17-yl)-2-(3-(p-tolyl)ureido)propanamide] ({NH(4-Me-phenyl)-CO}-[Phe(3,5-F2)]SP[ξNMeThr]A[Pro(4R-Me)]; ester 2-C) | 8.54 ± 0.4 µM | > 20 µM | 
Cc1ccc(NC(=O)N[C@@H](Cc2ccccc2)C(=O)N[C@H]2COC(=O)[C@@H]3C[C@@H](C)CN3C(=O)[C@H](C)NC(=O)[C@@H]3CCCCN3C(=O)[C@@H]3CCCN3C2=O)cc1C [Compound 206, (S)—N-((2R,6S,8aS,14aS,20S,23aS)-2,6-dimethyl-5,8,14,19,23-pentaoxooctadecahydro-1H,5H,14H,19H-pyrido[2,1-i]dipyrrolo[2,1-c:2′,1′-l][1]oxa[4,7,10,13]tetraazacyclohexadecin-20-yl)-2-(3-(3,4-dimethylphenyl)ureido)-3-phenylpropanamide] | 7.1 ± 0.3 µM | < 0.2 µM | 
C[C@@H]1C[C@H]2C(=O)O[C@@H](C)[C@H](NC(=O)[C@H](Cc3cc(F)cc(F)c3)NC(=O)Nc3ccc(Cl)cc3F)C(=O)N3CCC[C@H]3C(=O)N(C)C([C@@H](C)O)C(=O)N[C@@H](C)C(=O)N2C1 (stereo partly drawn) [Compound 313, (S)-2-(3-(4-chloro-2-fluorophenyl)ureido)-3-(3,5-difluorophenyl)-N-((2R,6S,9R,11aS,17S,18S,20aS)-9-((R)-1-hydroxyethyl)-2,6,10,18-tetramethyl-5,8,11,16,20-pentaoxohexadecahydro-1H,5H,16H-dipyrrolo[2,1-c:2′,1′-l][1]oxa[4,7,10,13]tetraazacyclohexadecin-17-yl)propanamide] ({NH(4-Cl-2-F-phenyl)-CO}-[Phe(3,5-F2)][aThr]P[ξNMeThr]A[Pro(4R-Me)]; ester 2-C) | 7.3 ± 0.5 µM |  | 0.039 µM (≈ 0.0332 µg/mL)
